± gives the expanded uncertainty stated by the source.
Details: for surface tension liquid-gas: Drop volume; for viscosity / speed of sound / mass density / vapor or sublimation pressure: Liquid; for viscosity: Capillary tube (Ostwald / Ubbelohde) method; for speed of sound: Pulse-echo method; for vapor or sublimation pressure: Ebulliometric method (Recirculating still)

With Cc1ccc(C=O)o1 [5-methylfurfural] the surface tension liquid-gas (278.15 K) was 43.02 ± 0.3 mN/m, the viscosity (278.15 K, 101.33 kPa) was 3.164 ± 0.067 mPa·s and the speed of sound (278.15 K, 101.33 kPa) was 1521 ± 1.2 m/s. For the same compound, the mass density (278.15 K, 101.33 kPa, Vibrating tube method) was 1122.94 ± 0.34 kg/m3, the surface tension liquid-gas (280.65 K) was 42.75 ± 0.29 mN/m and the viscosity (280.65 K, 101.33 kPa) was 2.974 ± 0.063 mPa·s. It also gave a speed of sound (280.65 K, 101.33 kPa) of 1511.8 ± 1.2 m/s, a mass density (280.65 K, 101.33 kPa, Vibrating tube method) of 1120.49 ± 0.34 kg/m3 and a surface tension liquid-gas (283.15 K) of 42.37 ± 0.29 mN/m. It also gave a mass density (283.15 K, 100 kPa) of 1118.02 ± 0.56 kg/m3, a viscosity (283.15 K, 101.33 kPa) of 2.764 ± 0.059 mPa·s and a speed of sound (283.15 K, 101.33 kPa) of 1502.5 ± 1.2 m/s. It also gave a mass density (283.15 K, 101.33 kPa, Vibrating tube method) of 1118.02 ± 0.34 kg/m3, a mass density (283.15 K, 2500 kPa) of 1119.83 ± 0.61 kg/m3 and a mass density (283.15 K, 5000 kPa) of 1121.37 ± 0.66 kg/m3. It also gave a mass density (283.15 K, 7500 kPa) of 1122.65 ± 0.71 kg/m3, a mass density (283.15 K, 10000 kPa) of 1124.02 ± 0.76 kg/m3 and a mass density (283.15 K, 20000 kPa) of 1129.41 ± 0.98 kg/m3. It also gave a mass density (283.15 K, 30000 kPa) of 1134.53 ± 1.2 kg/m3, a mass density (283.15 K, 40000 kPa) of 1139.44 ± 1.5 kg/m3 and a mass density (283.15 K, 50000 kPa) of 1144.14 ± 1.7 kg/m3. The mass density (283.15 K, 60000 kPa) was 1148.58 ± 2 kg/m3, the surface tension liquid-gas (285.65 K) was 42.13 ± 0.29 mN/m and the viscosity (285.65 K, 101.33 kPa) was 2.628 ± 0.056 mPa·s. It also gave a speed of sound (285.65 K, 101.33 kPa) of 1493.2 ± 1.2 m/s, a mass density (285.65 K, 101.33 kPa, Vibrating tube method) of 1115.56 ± 0.34 kg/m3 and a surface tension liquid-gas (288.15 K) of 41.8 ± 0.29 mN/m. It also gave a mass density (288.15 K, 100 kPa) of 1113.09 ± 0.55 kg/m3, a viscosity (288.15 K, 101.33 kPa) of 2.443 ± 0.052 mPa·s and a speed of sound (288.15 K, 101.33 kPa) of 1484 ± 1.2 m/s. The mass density (288.15 K, 101.33 kPa, Vibrating tube method) was 1113.09 ± 0.34 kg/m3, the mass density (288.15 K, 2500 kPa) was 1114.82 ± 0.6 kg/m3 and the mass density (288.15 K, 5000 kPa) was 1116.39 ± 0.64 kg/m3. The mass density (288.15 K, 7500 kPa) was 1117.87 ± 0.69 kg/m3, the mass density (288.15 K, 10000 kPa) was 1119.23 ± 0.74 kg/m3 and the mass density (288.15 K, 20000 kPa) was 1124.75 ± 0.96 kg/m3. The mass density (288.15 K, 30000 kPa) was 1129.99 ± 1.2 kg/m3, the mass density (288.15 K, 40000 kPa) was 1134.99 ± 1.4 kg/m3 and the mass density (288.15 K, 50000 kPa) was 1139.79 ± 1.7 kg/m3. It also gave a mass density (288.15 K, 60000 kPa) of 1144.31 ± 1.9 kg/m3, a surface tension liquid-gas (290.65 K) of 41.46 ± 0.29 mN/m and a viscosity (290.65 K, 101.33 kPa) of 2.297 ± 0.049 mPa·s. The speed of sound (290.65 K, 101.33 kPa) was 1474.7 ± 1.2 m/s, the mass density (290.65 K, 101.33 kPa, Vibrating tube method) was 1110.62 ± 0.33 kg/m3 and the surface tension liquid-gas (293.15 K) was 41.2 ± 0.29 mN/m. For the same compound, the mass density (293.15 K, 100 kPa) was 1108.15 ± 0.54 kg/m3, the viscosity (293.15 K, 101.33 kPa) was 2.175 ± 0.046 mPa·s and the speed of sound (293.15 K, 101.33 kPa) was 1465.5 ± 1.2 m/s. For the same compound, the mass density (293.15 K, 101.33 kPa, Vibrating tube method) was 1108.15 ± 0.33 kg/m3, the mass density (293.15 K, 2500 kPa) was 1110.03 ± 0.58 kg/m3 and the mass density (293.15 K, 5000 kPa) was 1111.5 ± 0.63 kg/m3. The mass density (293.15 K, 7500 kPa) was 1112.96 ± 0.68 kg/m3, the mass density (293.15 K, 10000 kPa) was 1114.4 ± 0.73 kg/m3 and the mass density (293.15 K, 20000 kPa) was 1120.15 ± 0.93 kg/m3. For the same compound, the mass density (293.15 K, 30000 kPa) was 1125.46 ± 1.1 kg/m3, the mass density (293.15 K, 40000 kPa) was 1130.57 ± 1.4 kg/m3 and the mass density (293.15 K, 50000 kPa) was 1135.4 ± 1.6 kg/m3. It also gave a mass density (293.15 K, 60000 kPa) of 1140.08 ± 1.9 kg/m3, a surface tension liquid-gas (295.65 K) of 40.9 ± 0.29 mN/m and a viscosity (295.65 K, 101.33 kPa) of 2.056 ± 0.044 mPa·s. The speed of sound (295.65 K, 101.33 kPa) was 1456.3 ± 1.2 m/s, the mass density (295.65 K, 101.33 kPa, Vibrating tube method) was 1105.68 ± 0.33 kg/m3 and the surface tension liquid-gas (298.15 K) was 40.61 ± 0.28 mN/m. For the same compound, the mass density (298.15 K, 100 kPa) was 1103.2 ± 0.53 kg/m3, the viscosity (298.15 K, 101.33 kPa) was 1.948 ± 0.041 mPa·s and the speed of sound (298.15 K, 101.33 kPa) was 1447 ± 1.2 m/s. It also gave a mass density (298.15 K, 101.33 kPa, Vibrating tube method) of 1103.2 ± 0.33 kg/m3, a mass density (298.15 K, 2500 kPa) of 1104.82 ± 0.57 kg/m3 and a mass density (298.15 K, 5000 kPa) of 1106.62 ± 0.62 kg/m3. For the same compound, the mass density (298.15 K, 7500 kPa) was 1108.34 ± 0.66 kg/m3, the mass density (298.15 K, 10000 kPa) was 1109.63 ± 0.71 kg/m3 and the mass density (298.15 K, 20000 kPa) was 1115.43 ± 0.91 kg/m3. For the same compound, the mass density (298.15 K, 30000 kPa) was 1120.97 ± 1.1 kg/m3, the mass density (298.15 K, 40000 kPa) was 1126.15 ± 1.4 kg/m3 and the mass density (298.15 K, 50000 kPa) was 1131.12 ± 1.6 kg/m3. It also gave a mass density (298.15 K, 60000 kPa) of 1135.84 ± 1.9 kg/m3, a surface tension liquid-gas (300.65 K) of 40.22 ± 0.28 mN/m and a viscosity (300.65 K, 101.33 kPa) of 1.853 ± 0.039 mPa·s. The speed of sound (300.65 K, 101.33 kPa) was 1437.8 ± 1.2 m/s, the mass density (300.65 K, 101.33 kPa, Vibrating tube method) was 1100.73 ± 0.33 kg/m3 and the surface tension liquid-gas (303.15 K) was 39.95 ± 0.28 mN/m. The mass density (303.15 K, 100 kPa) was 1098.25 ± 0.53 kg/m3, the viscosity (303.15 K, 101.33 kPa) was 1.757 ± 0.037 mPa·s and the speed of sound (303.15 K, 101.33 kPa) was 1428.7 ± 1.2 m/s. It also gave a mass density (303.15 K, 101.33 kPa, Vibrating tube method) of 1098.25 ± 0.32 kg/m3, a mass density (303.15 K, 2500 kPa) of 1100.71 ± 1 kg/m3 and a mass density (303.15 K, 5000 kPa) of 1101.81 ± 0.6 kg/m3. For the same compound, the mass density (303.15 K, 7500 kPa) was 1103.11 ± 0.65 kg/m3, the mass density (303.15 K, 10000 kPa) was 1104.89 ± 0.69 kg/m3 and the mass density (303.15 K, 20000 kPa) was 1110.81 ± 0.88 kg/m3. The mass density (303.15 K, 30000 kPa) was 1116.44 ± 1.1 kg/m3, the mass density (303.15 K, 40000 kPa) was 1121.72 ± 1.3 kg/m3 and the mass density (303.15 K, 50000 kPa) was 1126.87 ± 1.6 kg/m3. The mass density (303.15 K, 60000 kPa) was 1131.66 ± 1.8 kg/m3, the “vapor or sublimation pressure” value (303.15 K) was 0.1 ± 0.1 kPa and the surface tension liquid-gas (305.65 K) was 39.66 ± 0.28 mN/m. The viscosity (305.65 K, 101.33 kPa) was 1.674 ± 0.036 mPa·s, the speed of sound (305.65 K, 101.33 kPa) was 1419.6 ± 1.2 m/s and the mass density (305.65 K, 101.33 kPa, Vibrating tube method) was 1095.77 ± 0.32 kg/m3. For the same compound, the surface tension liquid-gas (308.15 K) was 39.32 ± 0.28 mN/m, the mass density (308.15 K, 100 kPa) was 1093.29 ± 0.51 kg/m3 and the viscosity (308.15 K, 101.33 kPa) was 1.598 ± 0.034 mPa·s. For the same compound, the speed of sound (308.15 K, 101.33 kPa) was 1410.5 ± 1.2 m/s, the mass density (308.15 K, 101.33 kPa, Vibrating tube method) was 1093.29 ± 0.32 kg/m3 and the mass density (308.15 K, 2500 kPa) was 1095.01 ± 0.55 kg/m3. It also gave a mass density (308.15 K, 5000 kPa) of 1096.9 ± 0.59 kg/m3, a mass density (308.15 K, 7500 kPa) of 1098.15 ± 0.63 kg/m3 and a mass density (308.15 K, 10000 kPa) of 1100.06 ± 0.68 kg/m3. The mass density (308.15 K, 20000 kPa) was 1106.17 ± 0.86 kg/m3, the mass density (308.15 K, 30000 kPa) was 1111.86 ± 1.1 kg/m3 and the mass density (308.15 K, 40000 kPa) was 1117.24 ± 1.3 kg/m3. The mass density (308.15 K, 50000 kPa) was 1122.38 ± 1.5 kg/m3, the mass density (308.15 K, 60000 kPa) was 1127.34 ± 1.8 kg/m3 and the “vapor or sublimation pressure” value (308.15 K) was 0.15 ± 0.1 kPa. The surface tension liquid-gas (310.65 K) was 39.04 ± 0.28 mN/m, the viscosity (310.65 K, 101.33 kPa) was 1.527 ± 0.033 mPa·s and the speed of sound (310.65 K, 101.33 kPa) was 1401.4 ± 1.2 m/s. It also gave a mass density (310.65 K, 101.33 kPa, Vibrating tube method) of 1090.8 ± 0.32 kg/m3, a surface tension liquid-gas (313.15 K) of 38.75 ± 0.27 mN/m and a mass density (313.15 K, 100 kPa) of 1088.32 ± 0.5 kg/m3. It also gave a viscosity (313.15 K, 101.33 kPa) of 1.461 ± 0.031 mPa·s, a speed of sound (313.15 K, 101.33 kPa) of 1392.3 ± 1.2 m/s and a mass density (313.15 K, 101.33 kPa, Vibrating tube method) of 1088.32 ± 0.32 kg/m3. It also gave a mass density (313.15 K, 2500 kPa) of 1090.31 ± 0.54 kg/m3 and a mass density (313.15 K, 5000 kPa) of 1092.06 ± 0.58 kg/m3.

Source: the NIST ThermoML archive (doi:10.1021/je400783h)
